For 3 molecules, Km results are on record in patent US20070066505A1, “Anthocyanases as detergent additives” (priority 2005, published 2007).

For series [1], the system named is Pichia etchellsii anthocyanase (Pantp, enzyme-5), native. Put plainly: Km determination via β-glucosidase activity, anthocyanase of P. etchellsii (enzyme-5). It counts as biochemical. The settings on record: native enzyme-5. On the procedure: The biochemical examinations of the anthocyanase (enzyme-5) of P. etchellsii were performed analogously to the anthocyanases examined up to then.
The temperature optimum was 50° C. and the optimal pH value was 6.5.

For series [2], the system named is Debaryomyces hansenii anthocyanase (Dantp, enzyme-2), native. Briefly: Km determination via β-glucosidase activity, anthocyanase of D. hansenii (enzyme-2). The class given is biochemical. The settings on record: read-out: Km value for cellobiose; native enzyme-2. The procedure:
The biochemical examinations of the anthocyanase (enzyme-2) of D. hansenii were performed corresponding to the anthocyanases examined up to then. Thus, their biochemical parameters were determined by means of β-glucosidase activity determinations. […] D. hansenii anthocyanase has a temperature optimum of 55° C. and a pH optimum of 5.0. […] Furthermore, with this yeast, too, one started to establish the substrate spectrum.

Series [3] deals with Debaryomyces vanrijiae anthocyanase (DVantp, enzyme-4), native. Briefly: Km determination via β-glucosidase activity, anthocyanase of D. vanrijiae (enzyme-4). It counts as biochemical. The settings on record: read-out: Km value for cellobiose; established data. An excerpt: Moreover, the molecular weight and the isoelectric point were taken from literature (A. Belancic et al., J. Agric. Food Chem., 51: 1453-1459).

Substrate in series [4]: O=[N+]([O-])c1ccc(O[C@@H]2O[C@H](CO)[C@@H](O)[C@H](O)[C@H]2O)cc1
Put plainly: Km determination, recombinant anthocyanase (r-enzyme-1) of C. molischiana. It counts as biochemical, Candida molischiana. The settings on record: other: recombinant anthocyanase (r-enzyme-1); pH 5.5. On the procedure:
(§1) A. adeninivorans G1211/pAL-ALEU2m-BGLN was tested for the presence of recombinant anthocyanase (Bglnp-r-enz-1). For doing so, the recombinant enzyme was isolated, purified and biochemically characterized.
(§2) The recombinant anthocyanase has parameters very similar to those of C. molischiana enzyme (FIG. 9 and FIG. 10).
(§3) The temperature optimum was established at 40° C. The temperature range in which this anthocyanase was still has more than 80% activity was between 37.5° C. and 50° C. The optimum pH value was 4.0. However, the recombinant anthocyanase has an essentially broader pH tolerance range than the anthocyanase synthesized in C. molischiana. Thus, its activity was still 80% with a pH value of 5.5.

Substrate in series [5]: OC[C@H]1O[C@@H](O[C@H]2[C@H](O)[C@@H](O)C(O)O[C@@H]2CO)[C@H](O)[C@@H](O)[C@@H]1O
Described as above. It counts as biochemical, Candida molischiana. To be noted: other: recombinant anthocyanase (r-enzyme-1); pH 5.5. The procedure: as §1, §2, §3

Like-named read-outs stand apart in the source and are kept apart here.

As for `OC[C@H]1O[C@@H](O[C@H]2[C@H](O)[C@@H](O)C(O)O[C@@H]2CO)[C@H](O)[C@@H](O)[C@@H]1O` (stereo partly drawn) [cellobiose], the Km in series [1] (read-out: Km value for cellobiose) was 84.5 mM; in series [2], 16.3 mM; in series [3] it was 8.3 mM.
As for `O=[N+]([O-])c1ccc(O[C@@H]2O[C@H](CO)[C@@H](O)[C@H](O)[C@H]2O)cc1` [pNPG], the Km in series [1] (read-out: Km value for pNPG) is 59.7 mM.

B1: Candida molischiana anthocyanase (anthocyanin-β-glucosidase), recombinant, produced in Arxula adeninivorans (r-enzyme-1, rBglnp) (Kuraishia capsulata) (protein)
chain: KNISKAEMENLEHWWSYGRSDPVYPSPEISGLGDWQFAYQRAREIVALMTNEEKTNLTFGSSGDTGCSGMISDVPDVDFPGLCLQDAGNGVRGTDMVNAYASGLHVGASWNRQLAYDRAVYMGAEFRHKGVNVLLGPVVGPIGRVATGGRNWEGFTNDPYLAGALVYETTKGIQENVIACTKHFIGNEQETNRNPSGTYNQSVSANIDDKTMHELYLWPFQDSVRAGLGSIMGSYNRVNNSYACKNSKVLNGLLKSELGFQGFVVSDWGGQHTGIASANAGLDMAMPSSTYWEEGLIEAVKNGTVDQSRLDDMATRIIAAWYKYARLDDPGFGMPVSLAEDHELVDARDPAAASTIFQGAVEGHVLVKNENALPLKKPKYISLFGYDGVSTDVNTVGGGFSFFSFDVKAIENKTLISGGGSGTNTPSYVDAPFNAFVAKAREDNTFLSWDFTSAEPVANPASDACIDFINAAASEGYDRPNLADKYSDKLVEAVASQCSNTIVVIHNAGIRLVDNWIEHENVTGVILAHLPGQDTGTSLIEVLYGNQSPSGRLPYTVAKKASDYGGLLWPTEPEGDLDLYFPQSNFTEGVYIDYKYFIQKNITPRYEFGYGLTYTTFDYSELEVDAITNQSYLPPDCTIEEGGAKSLWDIVATVKFTVTNTGDVAAAEVPQLYVGIPNGPPKVLRGFDKKLIHPGQSEEFVFELTRRDLSTWDVVAQNWGLQAGTYQFYVGRSVFDVPLTSALVFTN
Regarding B1, the Km came to 5.56 mM in series [4] and 58.27 mM in series [5].

What is called Km is the substrate concentration at which the rate is half of its maximum.
